The source made the active and inactive calls. The rule behind the calls is not given here.
What was measured:
[1] = molecular target: RAC-alpha serine/threonine-protein kinase (Homo sapiens) (UniProt P31749); experiment: Inhibition of AKT phosphorylation in human TG10 cells at 300 uM after 30 mins by Western blot analysis; format: cell-based
[2] = Antiproliferative against human NSC-24 cells at 300 uM after 24 hrs by WST-1 assay; format: cell-based; details: nsc-24, 24 h
[3] = molecular target: RAC-alpha serine/threonine-protein kinase (Homo sapiens) (UniProt P31749); experiment: Inhibition of AKT phosphorylation in human NSC-24 cells at 300 uM after 30 mins by Western blot analysis; format: cell-based
[4] = (§1) Antiproliferative against human TG10 cells at 300 uM after 24 hrs by WST-1 assay; format: functional
[5] = (§2) Antiproliferative against human TG1 cells at 300 uM after 24 hrs by WST-1 assay; format: functional
[6] = (§3) Antiproliferative against human TG1 cells at 30 to 300 uM after 24 hrs by WST-1 assay; format: functional
[7] = molecular target: RAC-alpha serine/threonine-protein kinase (Homo sapiens) (UniProt P31749); experiment: Inhibition of AKT phosphorylation in human TG1 cells at 300 uM after 30 mins by Western blot analysis; format: cell-based
TG1 [8] = experiment: as §3; format: functional
[9] = Antiproliferative against human TG10 cells at 30 to 300 uM after 24 hrs by WST-1 assay; format: functional
[10] = Antiproliferative against human NSC-24 cells at 30 to 300 uM after 24 hrs by WST-1 assay; format: cell-based; details: nsc-24, 24 h
TG10 = experiment: as §1; format: functional
TG1 [11] = experiment: as §2; format: functional
[12] = Antiproliferative against human TG1 cells after 24 hrs by WST-1 assay; format: functional
[13] = Antiproliferative against human TG10 cells after 24 hrs by WST-1 assay; format: functional

Sequence of RAC-alpha serine/threonine-protein kinase (Homo sapiens) (P31749 whole entry): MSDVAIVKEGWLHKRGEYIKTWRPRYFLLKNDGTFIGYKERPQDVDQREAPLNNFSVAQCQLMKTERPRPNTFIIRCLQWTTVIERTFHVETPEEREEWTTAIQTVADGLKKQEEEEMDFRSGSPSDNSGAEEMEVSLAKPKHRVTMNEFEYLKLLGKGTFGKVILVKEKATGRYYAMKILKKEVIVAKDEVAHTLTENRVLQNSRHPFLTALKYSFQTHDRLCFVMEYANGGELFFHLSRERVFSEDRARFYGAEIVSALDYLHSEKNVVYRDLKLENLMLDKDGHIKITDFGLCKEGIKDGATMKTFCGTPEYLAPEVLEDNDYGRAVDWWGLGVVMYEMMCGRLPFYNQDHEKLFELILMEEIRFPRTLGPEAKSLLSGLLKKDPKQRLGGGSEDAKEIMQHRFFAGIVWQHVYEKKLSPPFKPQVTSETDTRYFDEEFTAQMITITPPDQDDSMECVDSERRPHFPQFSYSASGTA

O=c1ccc2nccc3c4cc(OCc5ccccc5)ccc4n1c23
inhibition [1]: Active | Activity [2]: Non-toxic | inhibition [3]: inactive | Activity [4]: 85% | Activity [5]: 40% | Activity [6]: 40% | inhibition [7]: Active

COc1ccc2c(c1)c1ccnc3ccc(=O)n2c31
Activity (TG1 [8]): inactive

Nc1cc(=O)n2c3ccccc3c3ccnc1c32
Activity (TG1 [8]): inactive

O=C1CCc2nccc3c4ccccc4n1c23
Activity (TG1 [8]): inactive

O=c1c2ccccc2c2nccc3c4ccccc4n1c32
Activity (TG1 [8]): inactive

O=c1ccc2c3c(cc[n+]2[O-])c2ccccc2n13
Activity (TG1 [8]): inactive

COc1cc2nccc3c4ccccc4n(c1=O)c23 [5-METHOXYCANTHINONE]
inhibition [1]: Active | Activity [9]: 35% | Activity [10]: 60% | inhibition [3]: Active | Activity [6]: 40% | inhibition [7]: Active

O=c1ccc2nccc3c4ccccc4n1c23 [CANTHIN-6-ONE]
inhibition [1]: Active | Activity [9]: 35% | Activity [10]: 60% | Activity (TG10): Active | Activity (TG1 [11]): Active | Activity [6]: 40% | inhibition [7]: Active

Cn1nnc2c(C(N)=O)ncn2c1=O [TEMOZOLOMIDE]
Activity [12]: >80% | Activity [13]: >80%

Reference: ChEMBL document CHEMBL3217608, “Alkaloids from Rutaceae: activities of canthin-6-one alkaloids and synthetic analogues on glioblastoma stems cells” (Medchemcomm, 2012)
